From patent US10834951B2, “Organic compounds” (GIVAUDAN SA, priority 2013, dated 2020)

Tests used:
[1] = Tasting in fried potato snack product with cheese seasoning (35% fat)
Experimental: A snack product consisting of a fried potato base, containing 35% fat and flavored with cheese seasoning containing salt, MSG, dairy, organic acids, sugars, and a flavour formulation. A compound of formula (I) was added to the snack product at the indicated levels and the tasting results are reported as follows (compared with a snack product without a compound of formula (I)): […]

[2] = Tasting by a professional panel in diluted low salt soy sauce
Experimental: Kikkoman low salt soy sauce was diluted 100 times. Part of the solution was kept as the reference. To another part was dosed a compound of formula (I). The solutions were tasted by a professional panel.
5.a: 0.1 ppm of 5-oxo-1-stearoylpyrrolidine-2-carboxylic acid (C18:0 pyro-Glu) was added to tap water containing 1% salt reduced kikoman soy sauce (9% salt).
5.b: 0.5 ppm of 5-oxo-1-palmitoylpyrrolidine-2-carboxylic acid (C16:0 pyro-Glu) was added to salt reduced kikoman soy sauce (9% salt).

[3] = Tasting in chicken bouillon base (0.7% salt, 0.5% fat)
Experimental: A compound of formula (I) in a concentration as indicated below was added to a chicken bouillon base (0.7% salt, 0.5% fat). The resultant composition was compared with a chicken bouillon without a compound of formula (I).

[4] = Expert tasting in orange flavoured Tang powdered soft drink
Experimental: In an orange flavoured Tang powdered soft drink (market product) sweetened with sucrose plus high intensity sweetener and containing citric acid, C18:0 pyro-Glu, and C18:2-Theanine were tested.
All samples were evaluated by expert tasters. Tasters were asked to describe the samples focusing on authentic taste, mouthfeel & body, enhancement, richness, juiciness, long lastingness, salivation, sweetness, masking off notes of high intensity sweetener.

[5] = Tasting in brewed green tea against reference
Experimental: A green tea was brewed by taking 0.6 g of tea/100 ml of water. The water was heated to 80° C. and the tea leaves were left in the solution for 5 minutes. The tea solution was allowed to cool down to room temperature. Part of the solution was kept as a reference. To another part was added a compound of formula (I) in a concentration as indicated below. The solutions were tasted against the reference (i.e. a green tea without a compound of formula (I)).

[6] = Expert tasting in mango flavoured still beverage
Experimental: In a Mango flavoured still beverage, sweetened with 8% sucrose & containing 0.1% citric acid and 1% clear mango juice flavoured with proprietary Mango flavour @ 0.05%, C16:0 pyro-Glu and C18:2-Theanine were added, as such (separate) and in combination.
All samples were evaluated by expert tasters. Tasters were asked to describe the samples focusing on authentic taste, juicy mouthfeel, enhancement, richness, juiciness, long lastingness, salivation, sweetness.
*Base: water, 8% sucrose, 0.1% citric acid, 1% clear mango juice (i.e. very low juice concentration), flavoured with Mango flavor (dosed at 0.05%).

[7] = 0.5 ppm in chicken bouillon base

| SMILES | taste description versus snack product without compound ([1]; 1 ppm in cheese flavoured fried potato snack) | taste description versus reference without the compound ([2]; 0.1 ppm in tap water containing 1% salt reduced kikoman soy sauce (9% salt)) | taste description versus chicken bouillon without compound ([3]; 0.2 ppm in chicken bouillon base) | taste description by expert tasters ([4]; 0.1 ppm in orange flavoured Tang base) | taste description versus green tea reference ([5]; 0.2 ppm in green tea) | taste description versus snack product without compound ([1]; 0.5 ppm in cheese flavoured fried potato snack) | taste description versus reference ([2]; 0.5 ppm in salt reduced kikoman soy sauce (9% salt)) | taste description versus chicken bouillon without compound [3, 7] | taste description by expert tasters ([6]; 0.1 ppm in mango still beverage base) | taste description versus snack product without compound ([1]; 0.1 ppm in cheese flavoured fried potato snack) | taste description by expert tasters ([4]; 1 ppm in orange flavoured Tang base) | taste description versus green tea reference ([5]; 0.02 ppm in green tea) | taste description versus green tea reference ([5]; 1 ppb in green tea) | taste description versus green tea reference ([5]; 10 ppb in green tea) | taste description by expert tasters ([6]; 1 ppm in mango still beverage base) |
| --- | --- | --- | --- | --- | --- | --- | --- | --- | --- | --- | --- | --- | --- | --- | --- |
| CCCCCCCCCCCCCCCCCC(=O)N1C(=O)CCC1C(=O)O (stereo not shown) [C18:0 pyro-Glu, 5-oxo-1-stearoylpyrrolidine-2-carboxylic acid] | more full, more cheesy, longer lasting, more salty | more body and to be more umami, more salty, longer lasting and richer | More umami lingering body, more salty, more rich | enhanced fruitiness, enhanced mouthfeel. Additionally, the off-notes of the high intensity sweetener were suppressed | more complex and had more mouthfeel |  |  |  |  |  |  |  |  |  |  |
| CCCCCCCCCCCCCCCC(=O)N1C(=O)CCC1C(=O)O (stereo not shown) [C16:0 pyro-Glu, 5-oxo-1-palmitoylpyrrolidine-2-carboxylic acid] |  |  |  |  |  | more rich, more cheesy, more umami. More salty | a stronger saltiness and to be more lingering, more umami | Nice strong salty, umami lingering body, better meat profile | very juicy and long lasting sweet, salivating |  |  |  |  |  |  |
| CCCCC/C=C\C/C=C\CCCCCCCC(=O)NC(CCC(=O)NCC)C(=O)O (stereo not shown) [C18:2-Theanine, 5-(ethylamino)-2-[(9Z,12Z)-octadeca-9,12-dienoylamino]-5-oxopentanoic acid] |  |  |  |  |  |  |  | More body and fatty notes, salivating |  | more fatty, more umami, more succulent | enhances sweet juicy orange notes,more body, more mouthfeel. Additionally, the off-notes of the high intensity sweetener were suppressed | better green tea character, was less bitter and had a better mouthfeel | more authentic tea than the reference and to have a nice balance between bitterness and astringency | more astringent, more body and somewhat more bitter umami than the reference | fatty skin-like, very juicy, authentic mango, more mouthfeel, long lasting mango taste |
